Assay results: patent US20120088759A1, “THIAZOLIDIN-4-ONE AND [1,3]-THIAZINAN-4-ONE COMPOUNDS AS OREXIN RECEPTOR ANTAGONISTS” (priority 2009, published 2012)

Tests used:
human orexin-2 receptor = molecular target: T1, human orexin-2 receptor (Homo sapiens, UniProt O43614); assay: FLIPR intracellular calcium assay, orexin receptor antagonistic activity (OX2); assay type: cell-based; details: CHO cells expressing human orexin-2 receptor; 3 nM orexin-A; normalized to on-plate reference; *n = geometric mean from n values
T1 construct: expressed in transfected cells; host or cells: CHO (Chinese hamster ovary) cells, kept under G418
T1 sequence (O43614 1-444): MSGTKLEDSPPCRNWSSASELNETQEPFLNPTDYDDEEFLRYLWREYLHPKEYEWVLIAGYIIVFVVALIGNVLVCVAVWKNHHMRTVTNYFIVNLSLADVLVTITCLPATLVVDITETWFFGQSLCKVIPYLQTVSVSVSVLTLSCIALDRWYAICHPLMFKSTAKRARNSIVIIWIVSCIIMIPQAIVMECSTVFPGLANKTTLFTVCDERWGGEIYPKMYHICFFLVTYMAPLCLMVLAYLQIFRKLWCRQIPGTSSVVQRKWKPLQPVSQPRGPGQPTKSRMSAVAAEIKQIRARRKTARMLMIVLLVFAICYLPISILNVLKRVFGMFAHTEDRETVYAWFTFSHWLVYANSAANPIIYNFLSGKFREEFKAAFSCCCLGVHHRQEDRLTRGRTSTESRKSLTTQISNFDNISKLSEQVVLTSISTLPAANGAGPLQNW
Method: (§1) The orexin receptor antagonistic activity of the compounds of formula (I) is determined in accordance with the following experimental method.
(§2) Chinese hamster ovary (CHO) cells expressing the human orexin-1 receptor and the human orexin-2 receptor, respectively, are grown in culture medium (Ham F-12 with L-Glutamine) containing 300 μg/ml G418, 100 U/ml penicillin, 100 μg/ml streptomycin and 10% heat inactivated fetal calf serum (FCS). The cells are seeded at 20′000 cells/well into 384-well black clear bottom sterile plates (Greiner). The seeded plates are incubated overnight at 37° C. in 5% CO2.
(§3) Human orexin-A as an agonist is prepared as 1 mM stock solution in MeOH:water (1:1), diluted in HBSS containing 0.1% bovine serum albumin (BSA), NaHCO3: 0.375 g/l and 20 mM HEPES for use in the assay at a final concentration of 3 nM.
(§4) Antagonists are prepared as 10 mM stock solution in DMSO, then diluted in 384-well plates using DMSO followed by a transfer of the dilutions into in HBSS containing 0.1% bovine serum albumin (BSA), NaHCO3: 0.375 g/l and 20 mM HEPES. On the day of the assay, 50 μl of staining buffer (HBSS containing 1% FCS, 20 mM HEPES, NaHCO3: 0.375 g/l, 5 mM probenecid (Sigma) and 3 μM of the fluorescent calcium indicator fluo-4 AM (1 mM stock solution in DMSO, containing 10% pluronic) is added to each well. The 384-well cell-plates are incubated for 50 min at 37° C. in 5% CO2 followed by equilibration at rt for 30-120 min before measurement.
(§5) Within the Fluorescent Imaging Plate Reader (FLIPR Tetra, Molecular Devices), antagonists are added to the plate in a volume of 10 μl/well, incubated for 10 min and finally 10 μl/well of agonist is added. Fluorescence is measured for each well at 1 second intervals, and the height of each fluorescence peak is compared to the height of the fluorescence peak induced by 3 nM orexin-A with vehicle in place of antagonist. For each antagonist, the IC50 value (the concentration of compound needed to inhibit 50% of the agonistic response) is determined and normalized using the obtained IC50 value of a on-plate reference compound. Optimized conditions were achieved by adjustment of pipetting speed and cell splitting regime. The calculated IC50 values of the compounds may fluctuate depending on the daily cellular assay performance. Fluctuations of this kind are known to those skilled in the art.

human orexin-1 receptor = molecular target: T2, human orexin-1 receptor (Homo sapiens, UniProt O43613); assay: FLIPR intracellular calcium assay, orexin receptor antagonistic activity (OX1); assay type: cell-based; details: CHO cells expressing human orexin-1 receptor; 3 nM orexin-A; normalized to on-plate reference; *n = geometric mean from n values
T2 construct: expressed in transfected cells; host or cells: CHO (Chinese hamster ovary) cells, kept under G418
T2 sequence (O43613 1-425): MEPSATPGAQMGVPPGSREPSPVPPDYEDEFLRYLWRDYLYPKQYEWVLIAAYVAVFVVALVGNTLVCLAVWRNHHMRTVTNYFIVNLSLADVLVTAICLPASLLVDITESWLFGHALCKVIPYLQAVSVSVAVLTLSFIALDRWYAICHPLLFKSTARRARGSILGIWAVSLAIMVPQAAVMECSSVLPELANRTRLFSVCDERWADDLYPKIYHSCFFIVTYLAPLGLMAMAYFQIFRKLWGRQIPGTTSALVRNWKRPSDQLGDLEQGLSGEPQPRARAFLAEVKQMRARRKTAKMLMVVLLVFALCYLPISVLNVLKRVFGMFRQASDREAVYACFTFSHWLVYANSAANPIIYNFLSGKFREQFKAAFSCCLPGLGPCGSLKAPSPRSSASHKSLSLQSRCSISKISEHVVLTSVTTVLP
Method: as §1, §2, §3, §4, §5

Row | Structure (SMILES) | IC50 (human orexin-2 receptor) | IC50 (human orexin-1 receptor)
1 | CCOc1ccc(CN2C(=O)CSC2c2c(OC)cncc2OC)cc1 (stereo not drawn) [Example 29, 2-(3,5-Dimethoxy-pyridin-4-yl)-3-(4-ethoxy-benzyl)-thiazolidin-4-one] | 36 nM | 1050 nM
2 | COc1cccc(OC)c1C1SC(C)C(=O)N1Cc1ccc2ccccc2n1 (stereo not drawn) [Example 30, 2-(2,6-Dimethoxy-phenyl)-5-methyl-3-quinolin-2-ylmethyl-thiazolidin-4-one] | 442 nM | 356 nM
3 | COc1cc(C)cc(OC)c1C1SC(C)C(=O)N1Cc1ccc(OC(F)(F)F)cc1 (stereo not drawn) [Example 35, 2-(2,6-Dimethoxy-4-methyl-phenyl)-5-methyl-3-(4-trifluoromethoxy-benzyl)-thiazolidin-4-one] | 130 nM | 170 nM
4 | COc1cc(F)cc(OC)c1C1SC(C)C(=O)N1Cc1ccc(OC(F)(F)F)cc1 (stereo not drawn) [Example 36, 2-(4-Fluoro-2,6-dimethoxy-phenyl)-5-methyl-3-(4-trifluoromethoxy-benzyl)-thiazolidin-4-one] | 33 nM | 171 nM
5 | CCOc1ccccc1C1SCCC(=O)N1Cc1ccccc1OC(F)F (stereo not drawn) [Example 40, 3-(2-Difluoromethoxy-benzyl)-2-(2-ethoxy-phenyl)-[1,3]thiazinan-4-one] | 68 nM | 1310 nM
6 | CCOc1ccccc1C1SCCC(=O)N1Cc1c(OC)cccc1OC (stereo not drawn) [Example 43, 3-(2,6-Dimethoxy-benzyl)-2-(2-ethoxy-phenyl)-[1,3]thiazinan-4-one] | 70 nM | 793 nM
7 | CCOc1ccccc1C1SCC(=O)N1Cc1ccc2c(c1)OCCO2 (stereo not drawn) [Example 72, 3-(2,3-Dihydro-benzo[1,4]dioxin-6-ylmethyl)-2-(2-ethoxy-phenyl)-thiazolidin-4-one] | 115 nM | 778 nM
8 | CCOc1ccccc1CN1C(=O)CSC1c1c(OC)cccc1OC (stereo not drawn) [Example 101, 2-(2,6-Dimethoxy-phenyl)-3-(2-ethoxy-benzyl)-thiazolidin-4-one] | 51 nM | 488 nM
9 | COc1cccc(OC)c1C1SCC(=O)N1Cc1cccc(OC(F)(F)F)c1 (stereo not drawn) [Example 119, 2-(2,6-Dimethoxy-phenyl)-3-(3-trifluoromethoxy-benzyl)-thiazolidin-4-one] | 61 nM | 355 nM
10 | CCOc1ccc(CN2C(=O)C(C)(C)SC2c2c(OC)cccc2OC)cc1 (stereo not drawn) [Example 175, 2-(2,6-Dimethoxy-phenyl)-3-(4-ethoxy-benzyl)-5,5-dimethyl-thiazolidin-4-one] | 663 nM | 86 nM
11 | COc1cccc(OC)c1C1SC(C)(C)C(=O)N1Cc1ccc2ccccc2c1 (stereo not drawn) [Example 176, 2-(2,6-Dimethoxy-phenyl)-5,5-dimethyl-3-naphthalen-2-ylmethyl-thiazolidin-4-one] | 295 nM | 20 nM
12 | COc1cccc(OC)c1C1SCC(=O)N1Cc1ccc(-c2ccccc2)cc1 (stereo not drawn) [Example 203, 3-Biphenyl-4-ylmethyl-2-(2,6-dimethoxy-phenyl)-thiazolidin-4-one] | 125 nM | 1830 nM
13 | COc1cc(C2SC(C)C(=O)N2Cc2nc3ccccc3[nH]2)ccc1OCc1ccccc1 (stereo not drawn) [Example 265, 3-(1H-Benzoimidazol-2-ylmethyl)-2-(4-benzyloxy-3-methoxy-phenyl)-5-methyl-thiazolidin-4-one] | 533 nM | 2630 nM
14 | COc1cccc(OC)c1C1SCC(=O)N1Cc1ccc(Oc2cncnc2)cc1 (stereo not drawn) [Example 276, 2-(2,6-Dimethoxy-phenyl)-3-[4-(pyrimidin-5-yloxy)-benzyl]-thiazolidin-4-one] | 121 nM | 1590 nM
15 | COc1cccc(OC)c1C1SCC(=O)N1Cc1ccc(Oc2cnccn2)cc1 (stereo not drawn) [Example 279, 2-(2,6-Dimethoxy-phenyl)-3-[4-(pyrazin-2-yloxy)-benzyl]-thiazolidin-4-one] | 32 nM | 1420 nM

Now those with a lower IC50 (human orexin-2 receptor), led by results:

Row | IC50 (human orexin-2 receptor) | IC50 (human orexin-1 receptor) | Structure (SMILES)
16 | 30 nM | 11 nM | COc1ccc2cc(CN3C(=O)C(C)SC3c3c(OC)cccc3OC)ccc2c1 (stereo not drawn) [Example 31, 2-(2,6-Dimethoxy-phenyl)-3-(6-methoxy-naphthalen-2-ylmethyl)-5-methyl-thiazolidin-4-one]
17 | 30 nM | 440 nM | COc1cccc(OC)c1C1SCC(=O)N1Cc1ccc(SC(F)(F)F)cc1 (stereo not drawn) [Example 139, 2-(2,6-Dimethoxy-phenyl)-3-(4-trifluoromethylsulfanyl-benzyl)thiazolidin-4-one]
18 | 28 nM | 107 nM | COc1cc(C)cc(OC)c1C1SCC(=O)N1Cc1ccc(OC(F)(F)F)cc1 (stereo not drawn) [Example 34, 2-(2,6-Dimethoxy-4-methyl-phenyl)-3-(4-trifluoromethoxy-benzyl)-thiazolidin-4-one]
19 | 24 nM | 263 nM | COc1cccc(OCCO)c1C1SCC(=O)N1Cc1ccc(OC(F)(F)F)cc1 (stereo not drawn) [Example 267, 2-[2-(2-Hydroxy-ethoxy)-6-methoxy-phenyl]-3-(4-trifluoromethoxy-benzyl)-thiazolidin-4-one]
20 | 21 nM | 1430 nM | CCOc1ccccc1C1SCC(=O)N1Cc1ccc(F)c(F)c1 (stereo not drawn) [Example 65, 3-(3,4-Difluoro-benzyl)-2-(2-ethoxy-phenyl)-thiazolidin-4-one]
21 | 18 nM | 154 nM | COc1cccc(OC)c1C1SCC(=O)N1Cc1ccc2ccccc2n1 (stereo not drawn) [Example 27, 2-(2,6-Dimethoxy-phenyl)-3-quinolin-2-ylmethyl-thiazolidin-4-one]
22 | 16 nM | 208 nM | COc1cncc(OC)c1C1SCC(=O)N1Cc1ccc(OC(F)(F)F)cc1 (stereo not drawn) [Example 28, 2-(3,5-Dimethoxy-pyridin-4-yl)-3-(4-trifluoromethoxy-benzyl)-thiazolidin-4-one]
23 | 13 nM | 2290 nM | CCOc1ccccc1C1SCC(=O)N1Cc1cccc(OC(F)(F)F)c1 (stereo not drawn) [Example 81, 2-(2-Ethoxy-phenyl)-3-(3-trifluoromethoxy-benzyl)-thiazolidin-4-one]
24 | 10 nM | 1030 nM | COc1cccc(OC)c1C1SCC(=O)N1Cc1ccc(Oc2cccnc2)cc1 (stereo not drawn) [Example 278, 2-(2,6-Dimethoxy-phenyl)-3-[4-(pyridin-3-yloxy)-benzyl]-thiazolidin-4-one]
25 | 8 nM | 105 nM | COc1cc(F)cc(OC)c1C1SCC(=O)N1Cc1ccc(OC(F)(F)F)cc1 (stereo not drawn) [Example 33, 2-(4-Fluoro-2,6-dimethoxy-phenyl)-3-(4-trifluoromethoxy-benzyl)-thiazolidin-4-one]
26 | 8 nM | 411 nM | COc1cccc(OC)c1C1SCC(=O)N1Cc1ccc(Oc2ccccn2)cc1 (stereo not drawn) [Example 277, 2-(2,6-Dimethoxy-phenyl)-3-[4-(pyridin-2-yloxy)-benzyl]-thiazolidin-4-one]
27 | 6 nM | 15 nM | COc1ccc2cc(CN3C(=O)CSC3c3c(OC)cccc3OC)ccc2c1 (stereo not drawn) [Example 32, 2-(2,6-Dimethoxy-phenyl)-3-(6-methoxy-naphthalen-2-ylmethyl)-thiazolidin-4-one]
